In patent US20250262298A1, “STING MODULATOR COMPOUNDS WITH SULFAMATE LINKAGES, AND METHODS OF MAKING AND USING” (TAKEDA PHARMACEUTICAL COMPANY LIMITED, priority 2018, published 2025):

Legend:
[1] = test system: THP1-Dual cells (Lucia luciferase under ISG54 promoter); experiment: THP-1 Dual Lucia reporter gene assay; type: cell-based, human; conditions: Homo sapiens, THP1-Dual, 20 h, luminescence signal induction, 20 hours at 37° C.
Procedure: THP1-Dual™ cells (InvivoGen #thpd-nfis) were derived from the human THP-1 monocyte cell line by stable integration of the Lucia luciferase gene, a secreted luciferase reporter gene, under the control of an ISG54 (interferon-stimulated gene) minimal promoter in conjunction with five interferon (IFN)-stimulated response elements. On the day of experiment, the cells were plated to a black, 384-well plate (Corning 356697) at 7500 cells/25 μl per well density in growth media (RPMI 1640, 2 mM L-glutamine, 25 mM HEPES, 10% heat-inactivated fetal bovine serum, 100 μg/mL Normocin™, 50 U/mL-50 μg/mL Pen-Strep, 10 μg/mL of blasticidin, and 100 μg/mL of Zeocin). The cell plates were dosed with 62.5 nL of the testing compounds, and then incubated at 37° C. for 20 hours. At the end of the incubation, 15 μL/well of the QUANTI-Luc™ (InvivoGen #rep-qlc1) were added, and luminescence was measured immediately using the LeadSeeker.
For the assay method described above, test compound percent luminescence signal induction, at various concentrations, was calculated relative to untreated and DMSO only treated samples. Compound concentration versus percent signal induction curves were fitted to generate EC50 values. One skilled in the art will appreciate that the values generated as EC50 values are subject to experimental variation.

[2] = molecular target: Human STING (Homo sapiens (Human), UniProt Q86WV6, H232R); experiment: Human STING TR-FRET assay; type: binding; conditions: human STING residues 140-379 (H232R), 100 nM; fluorescein labeled ligand 100 nM; 60 minutes at rt
Procedure: Human STING (accession number GB:BC047779) DNA encoding residues 140-379 (H232R) was cloned into pET28 as N-terminal HIS and C-terminal Avi tagged fusion protein, and a rTEV cleavage site between HIS tag and STING. The sequence was verified before recombinant protein expression using E. coli expression system.
For expression, STING expression vector was transformed into BL21(DE3) cells. The expression was induced by adding IPTG and expressing in 16° C. for 20 hours.
For purification, STING was purified by Nickel affinity resin (Thermo Scientific #25215), followed by TEV enzyme cleavage and Superdex 200 column (GE Healthcare #28-9893-35) purification. For site directed in vitro biotinylation, purified Avi-tagged STING protein was incubated with Biotin (SUPELCO #47868), ATP (SIGMA #A-7699) and BirA enzyme, followed by further purification through a Superdex 200 column (GE Healthcare #28-9893-35). Biotinylation was confirmed by Mass Spectrometry analysis.
40 nL of test compounds in DMSO were added to wells in a white, 384 well microtitre plate (Greiner 784075). 2 uL STING assay buffer (PBS and 0.01% BSA) containing fluorescein labeled ligand (c[G(2′,5′)p-2′-Fluo-AHC-A(3′,5′)p]-Biolog C 195, 100 nM final) and Tb labeled Streptavidin (Streptavidin-Tb cryptate-CisBio 610SATLB) were added. Then 2 uL STING assay buffer containing STING protein (100 nM final) was added and the mixture was incubated at rt for 60 minutes. The plates were then read on a BMG PheraStar Plus reader (LanthaScreen module).
For the assay method described above, test compound percent inhibition, at various concentrations, was calculated relative to untreated and DMSO only treated samples. Compound concentration versus percent inhibition curves were fitted to generate IC50 values. One skilled in the art will appreciate that the values generated either as percentage inhibition at a single concentration or IC50 values are subject to experimental variation.

Chain of Human STING (Q86WV6 140-379 H232R): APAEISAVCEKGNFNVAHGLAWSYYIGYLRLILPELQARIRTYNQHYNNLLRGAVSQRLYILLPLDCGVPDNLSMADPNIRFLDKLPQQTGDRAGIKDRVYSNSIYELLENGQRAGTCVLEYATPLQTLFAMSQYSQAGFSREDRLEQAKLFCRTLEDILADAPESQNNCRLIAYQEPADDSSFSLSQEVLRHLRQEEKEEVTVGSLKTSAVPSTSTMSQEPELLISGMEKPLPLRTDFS

Compound: Nc1nc2c(ncn2[C@@H]2O[C@@H]3COP(=O)(O)O[C@H]4[C@@H](F)[C@H](n5cnc6c(N)ncnc65)O[C@@H]4CNS(=O)(=O)O[C@@H]2C3)c(=O)[nH]1 [Compound I-18, 2-amino-9-[(5S,7R,8R,12aR,14R,15R,15aR)-14-(6-amino-9H-purin-9-yl)-15-fluoro-2-hydroxy-2,10,10-trioxidodecahydro-5,8-methanofuro[2,3-m][1,3,6,9,10,11,2]tetraoxathiazaphosphacyclotetradecin-7-yl]-1,9-dihydro-6H-purin-6-one]
- EC50 [1]: 1000 to 10000 nM
- IC50 [2]: < 1000 nM
